Measurements as given in PubChem BioAssay (NCI).
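Exposure lasted 48 hours, with cells grown in 96-well plates and compounds tested at five concentrations. TGI: total growth inhibition.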

Legend:
Assay in all cases: NCI anticancer screen, dose series, 48 h
PC-3 prostate = test system: PC-3 prostate
HOP-62 NSCLC = test system: HOP-62 NSCLC
SF-268 CNS = test system: SF-268 CNS
NCI-H460 lung = test system: NCI-H460 lung
OVCAR-8 ovarian = test system: OVCAR-8 ovarian
786-0 renal = test system: 786-0 renal
COLO 205 colon = test system: COLO 205 colon
RPMI-8226 leukemia = test system: RPMI-8226 leukemia
MALME-3M melanoma = test system: MALME-3M melanoma
HS 578T breast = test system: HS 578T breast
HOP-92 NSCLC = test system: HOP-92 NSCLC
MDA-N = test system: MDA-N
SK-MEL-28 melanoma = test system: SK-MEL-28 melanoma
K-562 leukemia = test system: K-562 leukemia
HCC-2998 colon = test system: HCC-2998 colon
OVCAR-5 ovarian = test system: OVCAR-5 ovarian
NCI-H522 lung = test system: NCI-H522 lung
TK-10 renal = test system: TK-10 renal
NCI-H23 lung = test system: NCI-H23 lung
HL-60(TB) leukemia = test system: HL-60(TB) leukemia
SF-539 CNS = test system: SF-539 CNS
HT29 colon = test system: HT29 colon
SNB-19 CNS = test system: SNB-19 CNS
EKVX NSCLC = test system: EKVX NSCLC
OVCAR-3 ovarian = test system: OVCAR-3 ovarian
KM12 colon = test system: KM12 colon
T-47D breast = test system: T-47D breast
SK-MEL-2 melanoma = test system: SK-MEL-2 melanoma
SF-295 CNS = test system: SF-295 CNS
OVCAR-4 ovarian = test system: OVCAR-4 ovarian
SK-MEL-5 melanoma = test system: SK-MEL-5 melanoma
SR leukemia = test system: SR leukemia
BT-549 breast = test system: BT-549 breast
CCRF-CEM leukemia = test system: CCRF-CEM leukemia
ACHN renal = test system: ACHN renal
UO-31 renal = test system: UO-31 renal
MDA-MB-231 breast = test system: MDA-MB-231 breast
A498 renal = test system: A498 renal
UACC-62 melanoma = test system: UACC-62 melanoma
M14 melanoma = test system: M14 melanoma
RXF 393 renal = test system: RXF 393 renal
MCF7 breast = test system: MCF7 breast
CAKI-1 renal = test system: CAKI-1 renal
DU-145 prostate = test system: DU-145 prostate
LOX IMVI melanoma = test system: LOX IMVI melanoma
SW-620 colon = test system: SW-620 colon
NCI-H226 lung = test system: NCI-H226 lung
MOLT-4 leukemia = test system: MOLT-4 leukemia
MDA-MB-435 = test system: MDA-MB-435
HCT-116 colon = test system: HCT-116 colon
HCT-15 colon = test system: HCT-15 colon
NCI/ADR-RES ovarian = test system: NCI/ADR-RES ovarian
SN12C renal = test system: SN12C renal
UACC-257 melanoma = test system: UACC-257 melanoma
U251 CNS = test system: U251 CNS
A549 NSCLC = test system: A549 NSCLC

`O=[N+]([O-])c1ccc(Oc2c(Cl)cc(S(=O)(=O)/N=C(\NO)Nc3ccc(Cl)cc3)cc2Cl)c(Cl)c1` was tested, and the TGI (PC-3 prostate) was 26.7 µM, the TGI (HOP-62 NSCLC) was 30.3 µM and the TGI (SF-268 CNS) was 29.6 µM. For the same compound, the TGI (NCI-H460 lung) was 37.2 µM, the TGI (OVCAR-8 ovarian) was 54.1 µM and the TGI (786-0 renal) was 27.8 µM. It also gave a TGI (COLO 205 colon) of 35.5 µM, a TGI (RPMI-8226 leukemia) of 34.3 µM and a TGI (MALME-3M melanoma) of 28.3 µM. The TGI (HS 578T breast) was 36 µM, the TGI (HOP-92 NSCLC) was 31.2 µM and the TGI (MDA-N) was 28.9 µM. The TGI (SK-MEL-28 melanoma) was 47.6 µM, the TGI (K-562 leukemia) was 35 µM and the TGI (HCC-2998 colon) was 31.2 µM. It also gave a TGI (OVCAR-5 ovarian) of 35.5 µM, a TGI (NCI-H522 lung) of 26.4 µM and a TGI (TK-10 renal) of 29.7 µM. It also gave a TGI (NCI-H23 lung) of 34.5 µM, a TGI (HL-60(TB) leukemia) of 51.7 µM and a TGI (SF-539 CNS) of 36.7 µM. It also gave a TGI (HT29 colon) of 30.5 µM, a TGI (SNB-19 CNS) of 30.6 µM and a TGI (EKVX NSCLC) of 28 µM. The TGI (OVCAR-3 ovarian) was 24.7 µM, the TGI (KM12 colon) was 28.4 µM and the TGI (T-47D breast) was 67.7 µM. For the same compound, the TGI (SK-MEL-2 melanoma) was 35.7 µM, the TGI (SF-295 CNS) was 31.1 µM and the TGI (OVCAR-4 ovarian) was 25.9 µM. It also gave a TGI (SK-MEL-5 melanoma) of 31.3 µM, a TGI (SR leukemia) of 32.6 µM and a TGI (BT-549 breast) of 29 µM. For the same compound, the TGI (CCRF-CEM leukemia) was 98.4 µM, the TGI (ACHN renal) was 28.2 µM and the TGI (UO-31 renal) was 26.5 µM. The TGI (MDA-MB-231 breast) was 36.7 µM, the TGI (A498 renal) was 25.9 µM and the TGI (UACC-62 melanoma) was 27.5 µM. The TGI (M14 melanoma) was 30.1 µM, the TGI (RXF 393 renal) was 26.5 µM and the TGI (MCF7 breast) was 34 µM. For the same compound, the TGI (CAKI-1 renal) was 28.3 µM, the TGI (DU-145 prostate) was 26.8 µM and the TGI (LOX IMVI melanoma) was 37.8 µM. The TGI (SW-620 colon) was 80.3 µM, the TGI (NCI-H226 lung) was 48.3 µM and the TGI (MOLT-4 leukemia) was 25.6 µM. The TGI (MDA-MB-435) was 31.3 µM, the TGI (HCT-116 colon) was 26.2 µM and the TGI (HCT-15 colon) was 32.1 µM. The TGI (NCI/ADR-RES ovarian) was 51.4 µM, the TGI (SN12C renal) was 27.4 µM and the TGI (UACC-257 melanoma) was 30.8 µM. For the same compound, the TGI (U251 CNS) was 30.8 µM and the TGI (A549 NSCLC) was 32.1 µM.
